The record followed here is US7547519B2, “Methods of diagnosing multidrug resistant tuberculosis” (The United States of America as represented by the …, priority 2000, dated 2009).

In one experiment the test system is MTb patient isolates. Type of experiment: cell-based, Mycobacterium tuberculosis.
The subject of experiment [1] is MTb H37Rv.
In experiment [2] the test system is MTb H37Rv. Put plainly: microbe, parasite or virus in culture. The note with it: Mycobacterium tuberculosis.

SMILES strings stand for the structures. ≈ marks a conversion by molar mass, not a printed value.

`CCc1cc(C(N)=S)ccn1` [ETA, ethionamide]: in the experiment on MTb patient isolates, the isolates cross-resistant result was “Eleven of fourteen” and the “susceptibility of isolates without mutations in EtaA, EtaR or promoter regions” value was “fully sensitive”. Besides, the growth of transformants result in the experiment with MTb H37Rv [1] was “grew as a lawn at 2.5 and 5 μg/ml ETA”. In the experiment on MTb H37Rv [2], this molecule registered an MIC of 2.5 to 5 µg/mL (≈ 15 to 30.1 µM).

`CC(C)CCOc1ccc(NC(=S)Nc2ccc(OCCC(C)C)cc2)cc1` [thiocarlide]: the isolates cross-resistant entry in the experiment on MTb patient isolates is listed as “thirteen out of fourteen”.
